Reference: patent US20080118940A1, “PROTEASOMAL PEPTIDASE ACTIVITY AND THE USE THEREOF IN CLINICAL APPLICATIONS” (priority 2006, published 2008)

Experiments:
[1] = biological target: T1, proteasomal caspase-like activity (Cas-L) (Homo sapiens, UniProt P28072); assay: Proteasome inhibitor effect on caspase-like (Cas-L) peptidase activity, fluorogenic Z-LLE-AMC assay; format: biochemical; conditions: purified proteasome, plasma and white blood cell lysate; YU-101 0.4 μg/mL; substrate 200 μM
T1 construct: in samples of purified proteasome, plasma, and white blood cell lysate; from tissue; host or cells: purified proteasome; plasma; white blood cell lysate (normal individuals)
T1 sequence (P28072 1-239): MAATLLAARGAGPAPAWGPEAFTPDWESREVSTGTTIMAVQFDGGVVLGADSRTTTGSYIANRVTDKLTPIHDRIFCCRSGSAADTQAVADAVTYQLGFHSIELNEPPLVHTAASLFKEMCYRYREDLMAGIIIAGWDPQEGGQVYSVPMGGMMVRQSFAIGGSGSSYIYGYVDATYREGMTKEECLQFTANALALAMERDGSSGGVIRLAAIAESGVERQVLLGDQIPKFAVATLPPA
Procedure: (§1) Ch-L, Tr-L, and Cas-L activities in peripheral blood plasma from patients were measured as follows. Frozen patient plasma samples were processed by thawing at room temperature and mixed thoroughly. 45 μL of thawed plasma was pipetted into a microfuge tube (Tube 1), and 22.5 μL plasma was pipetted into another microfuge tube (Tube 2). 5 μL 10% SDS was pipetted into Tube 1, and 2.5 μL 10% tween 20 was pipetted into Tube 2. Each tube was mixed and incubated at room temperature for 15 minutes resulting in processed samples. All buffers, substrate stock solutions, controls, and microwell plates were equilibrated to room temperature. The proteasome control was placed on ice immediately after thawing. […] Cleavage of substrate was detected using the SPECTRAmax GEMINI EM instrument with SoftMax Pro data Collection software. […] Fluorescence excitation and emission wavelengths were 380 nm and 460 nm, respectively. Samples were read at 1 minute intervals over 30 minutes. Green fluorescence was detected in columns 1, 4, 7, and 10, representing Ch-L activity; blue fluorescence was detected in columns 3, 6, 9, and 12, representing Cas-L activity; and yellow fluorescence was detected in columns 2, 5, 8, and 11, representing Tr-L activity. […]

[2] = biological target: T2, Pure human 20S proteasome (Homo sapiens, UniProt P28074); assay: Specificity of proteasomal enzymatic assay: Ch-L activity of purified 20S proteasome; format: biochemical; conditions: Suc-LLVY-AMC
T2 construct: purchased Biomol International PW8720-0050

[3] = test system: proteasome Ch-L activity in whole blood cell lysate from a normal individual; assay: Dose response of Ch-L activity in whole blood lysate from a normal individual; format: biochemical, human; set-up: Activity: unit not given beside the values; conditions: for % Inhibition / Activity: whole blood, normal individual
Procedure: (§2) Ch-L, Tr-L, and Cas-L activities in peripheral blood plasma from patients were measured as follows. Frozen patient plasma samples were processed by thawing at room temperature and mixed thoroughly. 45 μL of thawed plasma was pipetted into a microfuge tube (Tube 1), and 22.5 μL plasma was pipetted into another microfuge tube (Tube 2). 5 μL 10% SDS was pipetted into Tube 1, and 2.5 μL 10% tween 20 was pipetted into Tube 2. Each tube was mixed and incubated at room temperature for 15 minutes resulting in processed samples. All buffers, substrate stock solutions, controls, and microwell plates were equilibrated to room temperature. The proteasome control was placed on ice immediately after thawing. Substrate working solutions (1 mM) were made by adding 950 μL buffer A (1×HEPES/0.05% SDS) to 50 μL stock solution of Ch-L and Cas-L substrates (20 mM Suc-LLVY-AMC and 20 mM Z-LLE-AMC) and mixed. 950 μL buffer B (1×HEPES/0.05% Tween 20) was added to 50 μL stock solution of Tr-L substrate (20 mM BZ-VGR-AMC) and mixed. Working solutions were protected from light. A microwell plate (containing 12 columns of wells) was set-up according to a plate map as follows: 30 μL buffer A was pipetted into the wells of columns 1, 4, 7, and 10 (to measure Ch-L activity) and 3, 6, 9, and 12 (to measure Cas-L activity). 30 μL buffer B was pipetted into the wells of columns 2, 5, 8, and 11 (to measure Tr-L). 10 μL buffer A or B served as blank controls. 10 μL of processed samples were pipetted into duplicate wells for each substrate (i.e., 6 wells per processed plasma sample), to the designated wells according to the plate map. 10 μL of substrate was added to the designated wells according to the plate map. The final concentration of substrate was 200 μM. Cleavage of substrate was detected using the SPECTRAmax GEMINI EM instrument with SoftMax Pro data Collection software. The instrument incubation chamber temperature was set to 37° C. Fluorescence excitation and emission wavelengths were 380 nm and 460 nm, respectively. Samples were read at 1 minute intervals over 30 minutes. Green fluorescence was detected in columns 1, 4, 7, and 10, representing Ch-L activity; blue fluorescence was detected in columns 3, 6, 9, and 12, representing Cas-L activity; and yellow fluorescence was detected in columns 2, 5, 8, and 11, representing Tr-L activity.
A dose response study was conducted to determine the effect of concentration of YU-101 on Ch-L activity in a whole blood lysate from a normal individual. YU-101 (200 ng/μL) was serially diluted 1:2 in HEPES buffer to produce solutions having concentrations of 6.25, 12.5, 25, 50, and 100 ng/μL for dose response experiments. 70 μL of […] was combined with 1 μL inhibitor solution and incubated at room temperature for 15 minutes. Ch-L activity was determined as in Example 1.

[4] = biological target: T3, human pancreatic α-chymotrypsin (Homo sapiens, UniProt P17538); assay: Specificity of proteasomal enzymatic assay: pancreatic chymotrypsin activity; format: biochemical; conditions: Suc-LLVY-AMC
T3 construct: purchased Sigma C-8946; host or cells: isolated from human pancreas
T3 sequence (P17538 34-164 limits assumed, other chains not shown): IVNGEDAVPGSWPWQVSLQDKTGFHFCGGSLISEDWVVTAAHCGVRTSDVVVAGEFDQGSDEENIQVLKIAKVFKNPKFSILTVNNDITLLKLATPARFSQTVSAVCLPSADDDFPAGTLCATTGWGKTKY
T3 sequence (P17538 167-263 limits assumed, other chains not shown): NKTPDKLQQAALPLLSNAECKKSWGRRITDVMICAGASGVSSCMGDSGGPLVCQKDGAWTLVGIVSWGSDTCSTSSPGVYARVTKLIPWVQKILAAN
Procedure: as §1

[5] = test system: proteasomal trypsin-like activity (Tr-L); assay: Proteasome inhibitor effect on trypsin-like (Tr-L) peptidase activity, fluorogenic BZ-VGR-AMC assay; format: biochemical, human; conditions: purified proteasome, plasma and white blood cell lysate; YU-101 0.4 μg/mL; substrate 200 μM
Procedure: as §1

[6] = test system: proteasome Ch-L activity in plasma from an AML patient; assay: Dose response of Ch-L activity in plasma from an AML patient; format: biochemical, human; conditions: for % Inhibition / Activity: AML patient plasma
Procedure: as §2
A dose response study was conducted to determine the effect of concentration of YU-101 on Ch-L activity as assayed in plasma from an AML patient. YU-101 (200 ng/μL) was serially diluted 1:4 in HEPES buffer to produce solutions having concentrations of 0.78, 3.125, 12.5, 50, and 200 ng/μL for dose response experiments. 70 μL of plasma from an AML patient was combined with 1 μL inhibitor solution and incubated at room temperature for 15 minutes. Ch-L activity was determined as in Example 1.

[7] = test system: proteasomal chymotrypsin-like activity (Ch-L); assay: Proteasome inhibitor effect on chymotrypsin-like (Ch-L) peptidase activity, fluorogenic Suc-LLVY-AMC assay; format: biochemical, human; conditions: purified proteasome, plasma and white blood cell lysate; YU-101 0.4 μg/mL; substrate 200 μM
Procedure: as §1

`CC(=O)NC(CCc1ccccc1)C(=O)NC(CC(C)C)C(=O)NC(Cc1ccccc1)C(=O)NC(CC(C)C)C(=O)C1(C)CO1` (centres unmarked) [YU-101] was tested, and the “inhibition of caspase-L activity” value [1] was “weaker inhibitor”, the “Vmax Ch-L (fluorescence)” value ([2]; purified 20S proteasome + YU-101, final 4 ng/μL) was “No activity” and the “inhibition of Ch-L activity, dose dependence” value ([3]; whole blood cell lysate from a normal individual) was “dose-dependent”. For the same molecule, the “% Inhibition” value ([3]; approx. YU-101 0.0125 ng/μL) was 3.2%, the Activity ([3]; approx. YU-101 0.0125 ng/μL) was 92002 and the “% Inhibition” value ([3]; approx. YU-101 0.025 ng/μL) was 24.0%. For the same molecule, the Activity ([3]; approx. YU-101 0.025 ng/μL) was 72252, the “% Inhibition” value ([3]; approx. YU-101 0.05 ng/μL) was 38.4% and the Activity ([3]; approx. YU-101 0.05 ng/μL) was 58544. The “% Inhibition” value ([3]; approx. YU-101 0.1 ng/μL) was 82.0%, the Activity ([3]; approx. YU-101 0.1 ng/μL) was 17070 and the “% Inhibition” value ([3]; approx. YU-101 0.2 ng/μL) was 92.6%. The Activity ([3]; approx. YU-101 0.2 ng/μL) was 7024, the “Vmax Ch-L (fluorescence)” value ([4]; pancreatic α-chymotrypsin + YU-101, final 4 ng/μL) was “No activity” and the “inhibition of trypsin-L activity” value [5] was “weaker inhibitor”. For the same molecule, the “% Inhibition” value ([6]; approx. YU-101 0.00156 ng/μL) was 0.00%, the Activity ([6]; approx. YU-101 0.00156 ng/μL) was 233781 and the “% Inhibition” value ([6]; approx. YU-101 0.00625 ng/μL) was 8.98%. The Activity ([6]; approx. YU-101 0.00625 ng/μL) was 212786, the “% Inhibition” value ([6]; approx. YU-101 0.025 ng/μL) was 38.41% and the Activity ([6]; approx. YU-101 0.025 ng/μL) was 143991. For the same molecule, the “% Inhibition” value ([6]; approx. YU-101 0.1 ng/μL) was 62.54%, the Activity ([6]; approx. YU-101 0.1 ng/μL) was 87573 and the “% Inhibition” value ([6]; approx. YU-101 0.4 ng/μL) was 69.56%. For the same molecule, the Activity ([6]; approx. YU-101 0.4 ng/μL) was 71162, the “inhibition of Ch-L activity, dose dependence” value ([6]; plasma of an AML patient) was “dose-dependent” and the “inhibition of chymotrypsin-L activity” value [7] was “strong inhibitor”.

B1: α1-anti-chymotrypsin: pancreatic chymotrypsin inhibitor (Sigma, catalog #A9285) (protein, UniProt P01011 24-423, looked up)
Alpha-1-antichymotrypsin: HPNSPLDEENLTQENQDRGTHVDLGLASANVDFAFSLYKQLVLKAPDKNVIFSPLSISTALAFLSLGAHNTTLTEILKGLKFNLTETSEAEIHQSFQHLLRTLNQSSDELQLSMGNAMFVKEQLSLLDRFTEDAKRLYGSEAFATDFQDSAAAKKLINDYVKNGTRGKITDLIKDLDSQTMMVLVNYIFFKAKWEMPFDPQDTHQSRFYLSKKKWVMVPMMSLHHLTIPYFRDEELSCTVVELKYTGNASALFILPDQDKMEEVEAMLLPETLKRWRDSLEFREIGELYLPKFSISRDYNLNDILLQLGIEEAFTSKADLSGITGARNLAVSQVVHKAVLDVFEEGTEASAATAVKITLLSALVETRTIVRFNRPFLMIIVPTDTQNIFFMSKVTNPKQA
With B1 the “Vmax Ch-L (fluorescence)” value ([2]; purified 20S proteasome + α1-anti-chymotrypsin, final 40 ng/μL) was 121,813 and the “Vmax Ch-L (fluorescence)” value ([4]; pancreatic α-chymotrypsin + α1-anti-chymotrypsin, final 40 ng/μL) was “No activity”.
